# Assay results taken from patent US20160243142A1, “AVICIN D FOR TREATMENT OF MANTLE CELL LYMPHOMA” (Research Development Foundation, priority 2015, published 2016).
# Entries after “also recorded” stand apart in the source; their conditions may differ.
# Assays:
# [1] = Toxicity / body weight in Mino xenograft bearing NODscid mice; assay type: in vivo; conditions: for tolerability of dosing protocols: 0.5, 1.0 and 1.0-2.0 mg/kg s.c. daily; for animals removed from the study due to drug toxicity / treatment related deaths (TR): Group 5: escalating 1.0-2.0 mg/kg s.c., N = 10
# Description: (§1) Animals were treated according to Table 3 below. Animals were dosed in the opposite flank opposing the tumors at 10 mL/kg. Daily clinical observations were made and body weights and tumor measurements were performed thrice weekly. Animals were maintained on study until their tumor burden reached the study endpoint of 2000 mm^3. Animals were euthanized at the study endpoint with terminal cardiocentesis performed for serum collection and plasma preparation in K2EDTA. Tumors were excised and fixed in 10% formalin.
# Non-treatment related deaths (NTR), non-treatment metastatic related deaths (NTRm), and treatment related deaths (TR) were monitored. Animal body weight was monitored three times weekly throughout the study and mean % body weight loss was calculated and plotted with GraphPad Prism 5.0. Animals displaying >20% body weight loss were to be euthanized and recorded as TRs.
# [2] = test system: Mino mantle cell lymphoma xenograft; assay: Tumor growth delay in Mino mantle cell lymphoma xenograft bearing NODscid mice; assay type: in vivo; conditions: for PR (partial response): N = 10; for Log10 cell kill (750 mm^3): activity threshold 0.7
# Source text: 80 NOD .CB17 -Prkdcscid/J (NOD scid) (JAX, West Sacramento, Calif.) 4-6 week old female mice were transferred to the in vivo research laboratory in West Sacramento, CA. The mice were ear notched for identification and housed in individually and positively ventilated polycarbonate cages with HEPA filtered air at a density of five mice per cage. Bed-o'cobs® bedding was used and cages were changed every two weeks. The animal room was illuminated entirely with artificial fluorescent lighting, with a controlled 12 h light/dark cycle (7 am to 7 pm light). The normal temperature and relative humidity ranges in the animal rooms were 22±4° C. and 50±15%, respectively. The animal rooms were set to have 15 air exchanges per hour. Filtered tap water, acidified to a pH of 2.8 to 3.1, and LabDiet 5LL4 were provided ad libitum.
# Mino Mantle Cell Lymphoma cells (ATCC catalogue #CRL-3000™, Manassas, Va.) were maintained in RPMI 1640 with 2 mM 1-glutamine, 25 mM HEPES, 4.5 g/L D-glucose (Invitrogen, San Diego, Calif.) supplemented with 10% ES cell certified fetal bovine serum (Hyclone, Logan, Utah). The cells were suspended at 1×10^8 cells/ml in serum free media, and 80 mice were subcutaneously injected in the rear right flanks with 10^7 cells in 100 μL. Tumor volumes were monitored with ULTRA-Cal IV digital calipers (Fowler, Newton, Mass.), and 50 animals were tumor size rank matched into five cohorts of 10 animals with mean tumor volumes of approximately 150 mm^3.
# as §1
# Animals were euthanized when the tumors had reached the 2000 mm^3 study endpoint, and the tumors were harvested, weighed, and placed in 10% formalin. Table 4 summarizes the clinical observation schedule and the body weight and tumor measurement schedule performed.
# Tumor volumes were calculated from digital caliper raw data by using the formula: […]
# The value w (width) was the smaller of two perpendicular tumor axes and the value l (length) was the larger of two perpendicular axes.
# The tumor growth delay (TGD) method was used to analyze drug treatment effects on time (days) to tumor endpoint (TTE) for Mino tumor response. The tumor endpoint volume for TTE analysis was set at 2000 mm^3 and TTE was defined in days by the formula: […]
# The value for b was the (y) intercept and m was the slope of the line calculated from a linear regression of log-transformed tumor growth data for each tumor calculated from a minimum of three time points preceding 2000 mm^3 and a minimum of one that surpassed the time point for 2000 mm^3. Treatment initiated when tumors reached approximately 150 mm^3, and animals were drugged according to Table 3. Tumors were monitored until animals were euthanized due to tumors reaching a 2000 mm^3 endpoint, and the study was concluded on day 59 post drug treatment initiation.
# Treatment efficacy was determined by comparing TTE values calculated for each treatment group and by calculating percent tumor growth delay for each treatment group:
# T represented the median TTE in days for a drug treatment group and C represented the median TTE in days for the control group. Statistical significance for median TTE values for treatment group comparisons was determined by the Log-rank test with GraphPad Prism 5.0 software (GraphPad, La Jolla, Calif.). A 95% confidence value was used for two-tailed statistical analyses. Log-rank survival curves were plotted based on survival to 2000 mm3 to visualize the statistical significance of the median TTE values between treatment groups. […]
# [3] = approved dose; alternative treatment 1.9 months; cited from earlier work
# [4] = Group 1 vs. Group 3: vehicle control vs. 0.5 mg/kg s.c.
# [5] = Group 1 vs. Group 4: vehicle control vs. 1.0 mg/kg s.c.
# [6] = Group 1 vs. Group 5: vehicle control vs. 1.0-2.0 mg/kg s.c.
# [7] = Group 3: 0.5 mg/kg s.c. daily days 1-33
# [8] = Group 3 vs. Group 4: 0.5 mg/kg vs. 1.0 mg/kg s.c.
# [9] = Group 3 vs. Group 5: 0.5 mg/kg vs. 1.0-2.0 mg/kg s.c.
# [10] = Group 4: 1.0 mg/kg s.c. daily days 1-2, 5-33
# [11] = Group 4 vs. Group 5: 1.0 mg/kg vs. 1.0-2.0 mg/kg s.c.
# [12] = Group 5: escalating 1.0-2.0 mg/kg s.c. daily days 1-2, 5-33
# [13] = 3.3 mg/kg i.v. days 1 and 8 (Group 2)
compound,measurement,setting,value
C=CC(C)(O)CC/C=C(\CO)C(=O)O[C@@H]1C(C)O[C@@H](O[C@](C)(C=C)CC/C=C(\CO)C(=O)O[C@H]2C[C@@]3(C(=O)O[C@@H]4OC(CO)[C@@H](O)C(O)C4O[C@@H]4OC(C)[C@H](O[C@@H]5O[C@@H](CO)C(O)[C@@H]5O)C(O[C@@H]5OC(CO)[C@@H](O)C(O)C5O)C4O)C(CC2(C)C)C2=CCC4[C@@]5(C)CC[C@H](O[C@@H]6OC(CO[C@@H]7OC(C)[C@H](O)C(O)C7O[C@@H]7OC[C@@H](O)C(O)C7O)[C@@H](O)C(O)C6NC(C)=O)C(C)(C)C5CC[C@@]4(C)[C@]2(C)C[C@H]3O)C(O)C1O (some centres unmarked) [AVD-001],nadir mean % body weight change,"[1]; 0.5 mg/kg dose cohort, day 2",−4.43%
same,nadir mean % body weight change,"[1]; 1.0 mg/kg dose cohort, day 3",−11.82%
same,tolerability of dosing protocols,[1],generally well-tolerated
same,tolerability of dosing protocols,[1]; listed as Avicin,generally well tolerated
same,body weight loss,"[1]; Group 3 (0.5 mg/kg s.c.), peaked at day 2",4%
same,animals removed from the study due to drug toxicity / treatment related deaths (TR),[1],Two
same,animals removed from the study due to drug toxicity / treatment related deaths (TR),[1]; listed as Avicin,two and Two
same,transient body weight loss,"[1]; Groups 4 and 5 (1.0 and 1.0-2.0 mg/kg s.c.), dosing suspended days 3 and 4",10%
same,nadir average % body weight change,"[1]; escalating dose 1.0-2.0 cohort, day 3",−10.42%
same,injection site findings,"[1]; several Group 3, 4 and 5 mice, s.c.",irritation and/or bleeding at the injection site
same,Hazard Ratio,[2]; [4],3.159
same,Median survival Ratio (control/treated),[2]; [4],0.7412
same,Hazard Ratio,[2]; [5],3.492
same,Median survival Ratio (control/treated),[2]; [5],0.6941
same,Hazard Ratio,[2]; [6],10.36
same,Median survival Ratio (control/treated),[2]; [6],0.5675
same,Median Survival (to 2000 mm^3),[2]; Group 3: 0.5 mg/kg s.c.,29.2 days
same,% TGD (tumor growth delay),[2]; [7],34.9%
same,"Median TTE (time to tumor endpoint, 2000 mm^3)",[2]; [7],29.2 days
same,PR (partial response),[2]; Group 3: 0.5 mg/kg s.c.,3
same,Log10 cell kill (750 mm^3),[2]; Group 3: 0.5 mg/kg s.c.,0.57
same,Hazard Ratio,[2]; [8],1.588
same,Median survival Ratio,[2]; [8],0.9365
same,Hazard Ratio,[2]; [9],5.491
same,Median survival Ratio,[2]; [9],0.7657
same,Median Survival (to 2000 mm^3),[2]; Group 4: 1.0 mg/kg s.c.,31.18 days
same,% TGD (tumor growth delay),[2]; [10],44.1%
same,"Median TTE (time to tumor endpoint, 2000 mm^3)",[2]; [10],31.2 days
same,PR (partial response),[2]; Group 4: 1.0 mg/kg s.c.,4
same,Log10 cell kill (750 mm^3),[2]; Group 4: 1.0 mg/kg s.c.,0.45
same,Hazard Ratio,[2]; [11],1.674
same,Median survival Ratio,[2]; [11],0.8177
same,Median Survival (to 2000 mm^3),[2]; Group 5: 1.0-2.0 mg/kg s.c.,38.14 days
same,PR (partial response),[2]; Group 5: 1.0 to 2.0 mg/kg s.c.,6
same,Log10 cell kill (750 mm^3),[2]; Group 5: 1.0 to 2.0 mg/kg s.c.,0.89
same,% TGD (tumor growth delay),[2]; [12],76.2%
same,"Median TTE (time to tumor endpoint, 2000 mm^3)",[2]; [12],38.1 days
"COc1cccc2c1C(=O)c1c(O)c3c(c(O)c1C2=O)C[C@@](O)(C(=O)CO)C[C@@H]3O[C@H]1C[C@H](N)[C@H](O)[C@H](C)O1 [Adriamycin, doxorubicin, reference compound]",day by which animals were removed from study,[1]; [13],≤ 16 days
same,toxicity of positive control,[1]; [13],significant body weight loss; also recorded: severe toxicity
same,toxicity of positive control,"[1]; 3.3 mg/kg i.v. days 1 and 8 (Group 2), listed as adriamycin",significant treatment-related body weight loss
"CO[C@H]1C[C@@H]2CC[C@@H](C)[C@@](O)(O2)C(=O)C(=O)N2CCCC[C@H]2C(=O)O[C@H]([C@H](C)C[C@@H]2CC[C@@H](OC(=O)C(C)(CO)CO)[C@H](OC)C2)CC(=O)[C@H](C)/C=C(\C)[C@@H](O)[C@@H](OC)C(=O)[C@H](C)C[C@H](C)/C=C/C=C/C=C/1C [Torisel, temsirolimus]",average time lived without disease getting worse,[3],4.8 months
